Columns and labels:
[1] = target: T1, Phosphatidylinositol 4,5-bisphosphate 3-kinase catalytic subunit delta isoform (Homo sapiens, UniProt O00329); assay: PI3Kdelta Scintillation Proximity Assay; conditions: pH 6.7; 25 °C
T1 sequence (O00329 whole entry): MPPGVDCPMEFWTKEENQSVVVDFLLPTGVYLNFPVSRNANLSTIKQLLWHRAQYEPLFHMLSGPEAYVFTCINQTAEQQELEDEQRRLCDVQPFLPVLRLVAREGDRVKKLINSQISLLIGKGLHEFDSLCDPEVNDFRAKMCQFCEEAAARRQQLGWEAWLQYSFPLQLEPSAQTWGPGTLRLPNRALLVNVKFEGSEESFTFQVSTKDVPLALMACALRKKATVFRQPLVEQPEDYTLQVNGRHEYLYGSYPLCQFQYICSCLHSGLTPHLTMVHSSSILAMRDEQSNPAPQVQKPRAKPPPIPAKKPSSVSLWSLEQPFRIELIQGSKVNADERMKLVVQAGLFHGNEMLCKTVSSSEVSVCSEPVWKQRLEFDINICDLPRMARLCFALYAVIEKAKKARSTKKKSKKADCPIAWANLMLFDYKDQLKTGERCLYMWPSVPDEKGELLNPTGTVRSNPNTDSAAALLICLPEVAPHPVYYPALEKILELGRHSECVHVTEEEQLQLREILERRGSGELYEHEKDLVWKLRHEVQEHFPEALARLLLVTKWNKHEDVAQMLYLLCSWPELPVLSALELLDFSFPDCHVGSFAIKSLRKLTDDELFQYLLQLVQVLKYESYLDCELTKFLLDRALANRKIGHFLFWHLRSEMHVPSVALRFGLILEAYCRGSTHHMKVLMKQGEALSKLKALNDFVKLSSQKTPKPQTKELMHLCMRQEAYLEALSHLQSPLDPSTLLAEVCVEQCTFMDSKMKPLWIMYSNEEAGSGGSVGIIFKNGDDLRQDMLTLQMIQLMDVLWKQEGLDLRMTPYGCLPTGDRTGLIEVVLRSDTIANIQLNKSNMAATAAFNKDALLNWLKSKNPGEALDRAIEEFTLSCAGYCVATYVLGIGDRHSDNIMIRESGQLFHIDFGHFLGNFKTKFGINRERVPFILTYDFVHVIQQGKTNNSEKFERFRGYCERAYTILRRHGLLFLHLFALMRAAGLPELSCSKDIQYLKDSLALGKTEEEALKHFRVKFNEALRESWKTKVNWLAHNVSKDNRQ
Source text: [γ-33P]ATP (10 mCi/mL) and Wheat Germ Agglutinin (WGA) YSi SPA Scintillation Beads was purchased from Perkin-Elmer (Waltham, Mass.). Lipid kinase substrate, D-myo-Phosphatidylinositol 4,5-bisphosphate (PtdIns(4,5)P2)D (+)-sn-1,2-di-O-octanoylglyceryl, 3-O-phospho linked (PIP2), CAS 204858-53-7, was purchased from Echelon Biosciences (Salt Lake City, Utah). PI3Kδ (p110δ/p85α) Recombinant Human Protein was purchased from Eurofins (St. Charles, Mo.). ATP, MgCl2, DTT, EDTA, MOPS and CHAPS were purchased from Sigma-Aldrich (St. Louis, Mo.).The kinase reaction was conducted in polystyrene 384-well Greiner Bio-one white plate from Thermo Fisher Scientific in a final volume of 25 μL. Inhibitors were first diluted serially in DMSO and added to the plate wells before the addition of other reaction components. The final concentration of DMSO in the assay was 2%. The PI3Kδ assay was carried out at room temperature in 20 mM MOPS, pH 6.7, 10 mM MgCl2, 5 mM DTT and CHAPS 0.03%. Reactions were initiated by the addition of ATP, the final reaction mixture consisted of 20 μM PIP2, 2 μM ATP, 0.5 μCi [γ-33P] ATP, 3.4 nM PI3Kδ. Reactions were incubated for 120 min and terminated by the addition of 40 μL SPA beads suspended in quench buffer: 163 mM potassium phosphate pH 7.8, 20% glycerol, 25 mM EDTA. The final concentration of SPA beads is 1.0 mg/mL. After the plate sealing, plates were shaken overnight at room temperature and centrifuged at 1500 rpm for 10 min, the radioactivity of the product was determined by scintillation counting on Topcount (Perkin-Elmer). IC50 determination was performed by fitting the curve of percent of the solvent control activity versus the log of the inhibitor concentration using the GraphPad Prism 6.0 software.

[2] = target: Phosphatidylinositol 4,5-bisphosphate 3-kinase catalytic subunit gamma isoform (Homo sapiens, UniProt P48736); assay: PI3K-gamma Scintillation Proximity Assay; conditions: pH 6.7; 25 °C
Source text: γ-33P]ATP (10 mCi/mL) and Wheat Germ Agglutinin (WGA) YSi SPA Scintillation Beads was purchased from Perkin-Elmer (Waltham, Mass.). Lipid kinase substrate, D-myo-Phosphatidylinositol 4,5-bisphosphate (PtdIns(4,5)P2)D (+)-sn-1,2-di-O-octanoylglyceryl, 3-O-phospho linked (PIP2), CAS 204858-53-7, was purchased from Echelon Biosciences (Salt Lake City, Utah). PI3Kγ (p110γ) Recombinant Human Protein was purchased from Life technology (Grand Island, N.Y.). ATP, MgCl2, DTT, EDTA, MOPS and CHAPS were purchased from Sigma-Aldrich (St. Louis, Mo.).The kinase reaction was conducted in polystyrene 384-well Greiner Bio-one white plate from Thermo Fisher Scientific in a final volume of 25 μL. Inhibitors were first diluted serially in DMSO and added to the plate wells before the addition of other reaction components. The final concentration of DMSO in the assay was 2%. The PI3Kγ assay was carried out at room temperature in 20 mM MOPS, pH 6.7, 10 mM MgCl2, 5 mM DTT and CHAPS 0.03%. Reactions were initiated by the addition of ATP, the final reaction mixture consisted of 20 μM PIP2, 2 μM ATP, 0.5 μCi [γ-33P] ATP, 13 nM PI3Kγ. […] After the plate sealing, plates were shaken overnight at room temperature and centrifuged at 1500 rpm for 10 min, the radioactivity of the product was determined by scintillation counting on Topcount (Perkin-Elmer). […]

Chain of Phosphatidylinositol 4,5-bisphosphate 3-kinase catalytic subunit gamma isoform (P48736 whole entry, canonical isoform): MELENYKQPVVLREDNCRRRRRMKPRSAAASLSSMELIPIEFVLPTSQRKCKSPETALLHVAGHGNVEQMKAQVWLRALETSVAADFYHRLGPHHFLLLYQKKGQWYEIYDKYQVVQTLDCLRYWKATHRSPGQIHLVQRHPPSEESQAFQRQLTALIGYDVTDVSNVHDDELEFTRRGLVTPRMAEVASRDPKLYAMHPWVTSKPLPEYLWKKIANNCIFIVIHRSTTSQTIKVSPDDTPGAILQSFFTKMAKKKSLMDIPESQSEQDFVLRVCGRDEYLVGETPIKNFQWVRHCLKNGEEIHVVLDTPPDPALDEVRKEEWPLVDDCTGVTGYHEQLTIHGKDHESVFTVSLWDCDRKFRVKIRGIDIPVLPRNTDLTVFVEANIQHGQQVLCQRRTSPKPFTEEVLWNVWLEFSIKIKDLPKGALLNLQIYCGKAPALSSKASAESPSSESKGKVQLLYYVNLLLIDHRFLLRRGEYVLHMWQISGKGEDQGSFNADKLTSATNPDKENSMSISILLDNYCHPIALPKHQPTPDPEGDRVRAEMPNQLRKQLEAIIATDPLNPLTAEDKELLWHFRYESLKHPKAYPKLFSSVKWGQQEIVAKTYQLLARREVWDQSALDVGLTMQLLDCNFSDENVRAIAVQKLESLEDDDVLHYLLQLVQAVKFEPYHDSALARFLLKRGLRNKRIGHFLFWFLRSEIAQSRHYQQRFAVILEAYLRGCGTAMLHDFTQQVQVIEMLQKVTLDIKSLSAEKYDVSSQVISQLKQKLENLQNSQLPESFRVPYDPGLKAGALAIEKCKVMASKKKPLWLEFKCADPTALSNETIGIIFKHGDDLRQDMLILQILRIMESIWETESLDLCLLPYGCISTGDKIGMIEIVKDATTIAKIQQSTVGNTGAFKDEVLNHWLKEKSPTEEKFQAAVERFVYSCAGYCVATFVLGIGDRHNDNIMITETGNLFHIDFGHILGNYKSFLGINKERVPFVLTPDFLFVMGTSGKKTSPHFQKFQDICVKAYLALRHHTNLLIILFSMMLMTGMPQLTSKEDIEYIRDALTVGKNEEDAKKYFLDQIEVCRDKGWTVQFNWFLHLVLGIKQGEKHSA

IC50 [2] | SMILES | IC50 [1]
 | COc1cncc(-c2ccc3nc(-c4cc5ccccc5[nH]4)oc3c2)c1 [US10022387, Example 4] | < 5 µM
< 1 µM | CC(=O)Nc1cc(-c2ccc3nc(-c4nc5ccccc5[nH]4)oc3c2)cnc1F [US10022387, Example 33] | > 5 µM
 | CCS(=O)(=O)Nc1cncc(-c2ccc3nc(-c4nc5ccccc5[nH]4)oc3c2)c1 [US10022387, Example 73] | < 5 µM

From BindingDB's records for patent US10022387 (Incyte, 2018)
